Data as given in paper PMC8464905, “Novel c-Jun N-Terminal Kinase (JNK) Inhibitors with an 11H-Indeno[1,2-b]quinoxalin-11-one Scaffold” (Molecules, 2021).
Like-named read-outs stand apart in the source and are kept apart here.

Experiments:
[1] = target: T1, JNK3 (Homo sapiens, UniProt P53779); settings: previously identified inhibitors; ref [35],[36]; cited from earlier work
T1 construct: purchased Eurofins Pharma Discovery (KINOMEscan)

[2] = target: T2, JNK1 (Homo sapiens, UniProt P45983); settings: previously identified inhibitors; ref [35],[36]; cited from earlier work
T2 construct: purchased Eurofins Pharma Discovery (KINOMEscan)

[3] = target: T3, JNK2 (Homo sapiens, UniProt P45984); settings: previously identified inhibitors; ref [35],[36]; cited from earlier work
T3 construct: purchased Eurofins Pharma Discovery (KINOMEscan)

[4] = target: JNK1-3; experiment: KINOMEscan binding, statements for all three JNK isoforms; settings: summary of Table 3
Protocol: (§1) Selected compounds were submitted for dissociation constant (Kd) determination using KINOMEscan (Eurofins Pharma Discovery, San Diego, CA, USA), as described previously. […] Primary screening at fixed concentrations of compounds was performed in duplicate.

[5] = CellTiter-Glo cytotoxicity in THP-1Blue cells; assay type: cell-based, human; settings: human, THP-1Blue cells; 24-h incubation, up to 50 μM; read-out: THP-1Blue Cell Cytotoxicity IC50
Protocol: (§2) All cells were cultured at 37 °C in a humidified atmosphere containing 5% CO2. THP1-Blue cells obtained from InvivoGen (San Diego, CA, USA) were cultured in RPMI 1640 medium (Mediatech Inc., Herndon, VA, USA) supplemented with 10% (v/v) fetal bovine serum (FBS), 100 μg/mL streptomycin, 100 U/mL penicillin, 100 μg/mL phleomycin (Zeocin), and 10 μg/mL blasticidin S. Human monocyte-macrophage MonoMac-6 cells (Deutsche Sammlung von Mikroorganismen und Zellkulturen GmbH, Braunschweig, Germany) were grown in RPMI 1640 medium supplemented with 10% (v/v) FBS, 10 μg/mL bovine insulin, 100 μg/mL streptomycin, and 100 U/mL penicillin.
(§3) Cytotoxicity was analyzed with a CellTiter-Glo Luminescent Cell Viability Assay Kit from Promega (Madison, WI, USA), according to the manufacturer’s protocol. Cells were treated with compounds under investigation and incubated for 24 h. After treatment, the cells were equilibrated to room temperature for 30 min, substrate was added, and the samples were analyzed with a Fluoroscan Ascent FL (Thermo Fisher Scientific, Waltham, MA, USA). The IC50 values were calculated by plotting percentage inhibition against the logarithm of inhibitor concentration (at least five points).

[6] = target: T3, JNK2; experiment: KINOMEscan Kd determination, JNK2; settings: duplicate, mean, N.B. = no binding at < 30 μM
Protocol: as §1

[7] = test system: NF-κB/AP-1; experiment: LPS-induced NF-κB/AP-1 alkaline phosphatase reporter assay in THP1-Blue cells; assay type: cell-based; settings: Homo sapiens; 30 min pretreatment, 250 ng/mL LPS for 24 h; read-out: THP-1Blue Cell NF-κB/AP-1 IC50
Protocol: as §2
Activation of AP-1/NF-κB was measured using an alkaline phosphatase reporter gene assay in THP1-Blue cells. Human monocytic THP-1 Blue cells are stably transfected with a secreted embryonic alkaline phosphatase gene that is under the control of a promoter inducible by NF-κB/AP-1. THP1-Blue cells (2 × 10^5 cells/well) were pretreated with test compound or DMSO for 30 min, followed by addition of 250 ng/mL lipopolysaccharide (LPS) for 24 h, and alkaline phosphatase activity was measured in cell supernatants using QUANTI-Blue mix (InvivoGen) as absorbance at 655 nm and compared with positive control samples (LPS). For selected compounds, the concentrations of inhibitor that caused 50% inhibition of the NF-κB reporter activity (IC50) were calculated.

[8] = CellTiter-Glo cytotoxicity in MonoMac-6 cells; assay type: cell-based, human; settings: human, MonoMac-6 cells; 24-h incubation, up to 50 μM; read-out: MonoMac-6 Cell Cytotoxicity IC50
Protocol: as §2, §3

[9] = test system: IL-6; experiment: LPS-induced IL-6 production in MonoMac-6 cells (ELISA); assay type: cell-based; settings: Homo sapiens, MONO-MAC-6; 30 min pretreatment, 250 ng/mL LPS for 24 h; read-out: MonoMac-6 Cell IL-6 IC50
Protocol: as §2
A human IL-6 ELISA kit (BD Biosciences, San Jose, CA, USA) was measure IL-6 production. MonoMac-6 cells were plated in 96-well plates at a density of 2 × 10^5 cells/well in culture medium supplemented with 3% (v/v) endotoxin-free FBS. The cells were pretreated with test compound or DMSO for 30 min, followed by addition of 250 ng/mL LPS for 24 h. IC50 values for IL-6 production were calculated by plotting percentage inhibition against the logarithm of inhibitor concentration (at least five points).

[10] = target: T2, JNK1; experiment: KINOMEscan Kd determination, JNK1; settings: duplicate, mean, N.B. = no binding at < 30 μM
Protocol: as §1

[11] = target: T1, JNK3; experiment: KINOMEscan Kd determination, JNK3; settings: duplicate, mean, N.B. = no binding at < 30 μM
Protocol: as §1

[12] = test system: THP-1Blue cells; experiment: CellTiter-Glo cytotoxicity in THP-1Blue cells; assay type: cell-based, human; settings: 24-h incubation, up to 50 μM
Protocol: as §2, §3

[13] = test system: MonoMac-6 cells; experiment: CellTiter-Glo cytotoxicity in MonoMac-6 cells; assay type: cell-based, human; settings: 24-h incubation, up to 50 μM
Protocol: as §2, §3

[14] = test system: phospho-c-Jun (Ser63); experiment: LPS-induced c-Jun (Ser63) phosphorylation in MonoMac-6 cells (Western blotting); assay type: cell-based, human; settings: 30 min pretreatment, LPS 250 ng/mL 30 min
Protocol: MonoMac-6 monocytic cells were pretreated with different concentrations of the compounds under investigation for 30 min and treated with LPS (250 ng/mL) or vehicle for another 30 min. Cells were washed twice with Hanks’ balanced salt solution, and cell lysates were prepared using lysis buffer from the JNK kinase assay kit (Cell Signaling Technology, Danvers, MA). Cell lysates (from 5 × 10^6 cells) were separated on ExpressPlus 4–20% PAGE Gels (GenScript, Piscataway, NJ, USA) using TRIS-MOPS running buffer (GenScript) and transferred to nitrocellulose membranes. The blots were probed with antibodies against c-Jun, phospho-c-Jun (Ser63), and total c-Jun (Cell Signaling Technology, Danvers, MA, USA), followed by horseradish peroxidase-conjugated secondary antibody (Cell Signaling Technology). The blots were developed using SuperSignal West Femto chemiluminescent substrate (Thermo Fisher Scientific) and visualized with a FluorChem FC2 imaging system (Alpha Innotech Corporation, San Leandro, CA, USA). Quantitation of the chemiluminescent signal was performed using AlphaView software (ver. 3.0; Alpha Innotech).

T1 sequence (P53779 whole entry): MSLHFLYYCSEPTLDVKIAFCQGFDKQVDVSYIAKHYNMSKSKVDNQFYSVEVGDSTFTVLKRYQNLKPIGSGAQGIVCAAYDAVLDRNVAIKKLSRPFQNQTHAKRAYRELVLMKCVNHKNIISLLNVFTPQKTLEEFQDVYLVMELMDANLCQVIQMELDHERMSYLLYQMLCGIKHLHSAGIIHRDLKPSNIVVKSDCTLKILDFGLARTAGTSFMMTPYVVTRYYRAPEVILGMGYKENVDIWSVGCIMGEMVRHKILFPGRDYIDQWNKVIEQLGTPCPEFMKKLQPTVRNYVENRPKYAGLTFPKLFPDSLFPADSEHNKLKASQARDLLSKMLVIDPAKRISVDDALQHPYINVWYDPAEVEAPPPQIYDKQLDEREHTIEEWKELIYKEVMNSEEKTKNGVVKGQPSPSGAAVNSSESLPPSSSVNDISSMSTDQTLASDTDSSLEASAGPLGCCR
T3 sequence (P45984 whole entry): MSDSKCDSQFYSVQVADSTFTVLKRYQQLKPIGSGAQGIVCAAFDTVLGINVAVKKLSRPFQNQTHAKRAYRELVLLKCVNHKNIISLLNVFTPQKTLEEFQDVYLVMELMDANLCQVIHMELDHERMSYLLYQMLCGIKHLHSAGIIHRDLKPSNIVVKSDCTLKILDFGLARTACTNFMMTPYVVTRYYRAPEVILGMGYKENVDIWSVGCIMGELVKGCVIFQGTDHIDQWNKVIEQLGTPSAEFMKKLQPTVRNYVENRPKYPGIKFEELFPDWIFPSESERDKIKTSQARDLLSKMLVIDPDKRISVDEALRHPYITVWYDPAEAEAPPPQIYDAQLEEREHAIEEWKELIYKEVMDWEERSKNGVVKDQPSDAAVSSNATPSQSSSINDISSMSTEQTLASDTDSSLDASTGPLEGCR
T2 sequence (P45983 whole entry): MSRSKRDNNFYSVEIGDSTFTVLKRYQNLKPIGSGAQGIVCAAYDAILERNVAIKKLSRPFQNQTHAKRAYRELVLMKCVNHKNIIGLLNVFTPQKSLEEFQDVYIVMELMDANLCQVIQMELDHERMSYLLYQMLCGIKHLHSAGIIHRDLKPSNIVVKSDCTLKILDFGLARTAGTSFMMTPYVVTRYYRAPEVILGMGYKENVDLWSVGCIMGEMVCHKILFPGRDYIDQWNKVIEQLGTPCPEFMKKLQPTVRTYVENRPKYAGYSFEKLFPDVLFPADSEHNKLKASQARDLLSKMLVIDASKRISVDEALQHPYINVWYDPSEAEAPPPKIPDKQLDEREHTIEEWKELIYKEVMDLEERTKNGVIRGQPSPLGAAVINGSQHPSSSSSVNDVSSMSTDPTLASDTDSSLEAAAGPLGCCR

SMILES	Kd [1]	Kd [2]	Kd [3]	Binding affinity (Kd) for all three JNK isoforms, in words [4]	IC50 at 24 h [5]	Kd [6]	melting point	IC50 [7]	IC50 at 24 h [8]	IC50 [9]	Kd [10]	Kd [11]	THP-1Blue Cell Cytotoxicity IC50 [12]	MonoMac-6 Cell Cytotoxicity IC50 [13]	JNK2 Kd [6]	Effect on LPS-induced c-Jun (Ser63) phosphorylation [14]
O=[N+]([O-])c1ccc2nc3c(nc2c1)-c1ccccc1/C3=N/O [B]	4300 nM	6000 nM	12000 nM	–	–	–	–	–	–	–	–	–	–	–	–	–
O/N=C1/c2ccccc2-c2nc3ccc(Cl)cc3nc21 [C]	700 nM	1100 nM	21500 nM	–	–	–	–	–	–	–	–	–	–	–	–	–
ON=C1c2ccccc2-c2nc3cc(F)ccc3nc21 [Compound 4a, 7-Fluoro-11H-indeno[1,2-b]quinoxalin-11-one Oxime]	–	–	–	submicromolar	> 50000 nM	620 ± 10 nM	250 to 251 °C	300 ± 100 nM	> 50000 nM	3000 ± 600 nM	280 ± 70 nM	190 ± 10 nM	–	–	–	–
ON=C1c2ccccc2-c2nc3c(Cl)cccc3nc21 [Compound 4b, 6-Chloro-11H-indeno[1,2-b]quinoxalin-11-one Oxime]	–	–	–	submicromolar	> 50000 nM	220 ± 60 nM	270 to 271 °C	900 ± 300 nM	> 50000 nM	1200 ± 400 nM	170 ± 40 nM	140 ± 30 nM	–	–	–	–
Cc1cc(Br)cc2nc3c(nc12)-c1ccccc1C3=NO [Compound 4c, 6-Methyl-8-bromo-11H-indeno[1,2-b]quinoxalin-11-one Oxime]	–	–	–	inactive	37500 ± 1700 nM	> 30000 nM	255 to 256 °C	–	14600 ± 1200 nM	–	> 30000 nM	> 30000 nM	exhibited cytotoxicity	cytotoxic	–	–
CC(C)(C)c1ccc2nc3c(nc2c1)-c1ccccc1/C3=N/O [Compound 4d, (11Z/E)-7-tert-Butyl-11H-indeno[1,2-b]quinoxalin-11-one Oxime]	–	–	–	relatively low affinity	> 50000 nM	1600 ± 600 nM	197 to 198 °C	400 ± 100 nM	> 50000 nM	1000 ± 200 nM	3100 ± 100 nM	3100 ± 200 nM	–	–	–	–
ON=C1c2ccccc2-c2nc3c(F)cc(F)cc3nc21 [Compound 4e, 6,8-Difluoro-11H-indeno[1,2-b]quinoxalin-11-one Oxime]	–	–	–	submicromolar	> 50000 nM	1600 ± 10 nM	255 to 256 °C	400 ± 100 nM	> 50000 nM	2200 ± 200 nM	920 ± 50 nM	900 ± 300 nM	–	–	–	–
ON=C1c2ccccc2-c2nc3cc(F)c(F)cc3nc21 [Compound 4f, 7,8-Difluoro-11H-indeno[1,2-b]quinoxalin-11-one Oxime]	–	–	–	–	> 50000 nM	> 30000 nM	250 to 251 °C	1100 ± 400 nM	> 50000 nM	14000 ± 2800 nM	170 ± 40 nM	520 ± 300 nM	–	–	did not bind	inhibited c-Jun phosphorylation
ON=C1c2ccccc2-c2nc3c(F)c(F)ccc3nc21 [Compound 4g, 6,7-Difluoro-11H-indeno[1,2-b]quinoxalin-11-one Oxime]	–	–	–	–	> 50000 nM	910 ± 60 nM	257 to 258 °C	2100 ± 400 nM	32000 ± 2200 nM	–	520 ± 90 nM	1100 ± 100 nM	–	cytotoxic	–	–
ON=C1c2ccccc2-c2nc3c(Br)cc(C(F)(F)F)cc3nc21 [Compound 4h, 6-Bromo-8-(trifluoromethyl)-11H-indeno[1,2-b]quinoxalin-11-one Oxime]	–	–	–	inactive	> 50000 nM	> 30000 nM	236 to 237 °C	2500 ± 600 nM	29000 ± 2500 nM	–	> 30000 nM	> 30000 nM	–	cytotoxic	–	–
O/N=C1/c2ccccc2-c2nc3c(Cl)cc(C(F)(F)F)cc3nc21 [Compound 4i, (11Z/E)-6-Chloro-8-(trifluoromethyl)-11H-indeno[1,2-b]quinoxalin-11-one Oxime]	–	–	–	inactive	> 50000 nM	> 30000 nM	324 to 325 °C	2900 ± 900 nM	> 50000 nM	6200 ± 200 nM	> 30000 nM	> 30000 nM	–	–	–	–
ON=C1c2ccccc2-c2nc3c(C(F)(F)F)cc(C(F)(F)F)cc3nc21 [Compound 4j, 6,8-bis(Trifluoromethyl)-11H-indeno[1,2-b]quinoxalin-11-one oxime]	–	–	–	inactive	36500 ± 1900 nM	> 30000 nM	253 to 254 °C	–	> 50000 nM	4800 ± 500 nM	> 30000 nM	> 30000 nM	exhibited cytotoxicity	–	–	–
ON=C1c2ccccc2-c2nc3cc(F)c(Cl)cc3nc21 [Compound 4k, 8-Chloro-7-fluoro-11H-indeno[1,2-b]quinoxalin-11-one Oxime]	–	–	–	–	> 50000 nM	> 30000 nM	276 to 277 °C	600 ± 200 nM	> 50000 nM	2300 ± 400 nM	> 30000 nM	24500 ± 2100 nM	–	–	–	–
COC(=O)c1ccc2nc3c(nc2c1)C(=NO)c1ccccc1-3 [Compound 4l, Methyl-11-(hydroxyimino)-11H-indeno[1,2-b]quinoxaline-8-carboxylate]	–	–	–	submicromolar	26100 ± 5300 nM	2400 ± 200 nM	300 to 301 °C	–	> 50000 nM	> 50000 nM	910 ± 160 nM	710 ± 50 nM	exhibited cytotoxicity	–	–	–
Cc1ccc2nc3c(nc2c1)-c1ccccc1/C3=N/O [D]	300 nM	700 nM	800 nM	–	–	–	–	–	–	–	–	–	–	–	–	–
